Laboratory results as given in article PMC5021965 (Scientific Reports, 2016).
Like-named read-outs stand apart in the source and are kept apart here.

What was measured:
primary rat hepatocytes [1] = assay: Hepatotoxicity in primary rat hepatocytes (MTT cell viability, LDH release); conditions: for effect on atorvastatin-induced cytotoxicity: primary hepatocytes of DM rats, atorvastatin 10 μM, GSH 0.5 and 2 mM, N-Acetylcysteine 0.5 and 2 mM, gemfibrozil 10 and 50 μM, ketoconazole 2 μM
Method: (§1) Another subset of experimental rats (CON, HFD and DM rats) were used for the primary rat hepatocytes isolation. […] Primary hepatocytes were isolated from experimental rats in a modified two-step collagenase perfusion method as previously reported. An aliquot of the hepatocyte suspension (at a density of 2.5 × 10^5/ml) was seeded in collagen-precoated plates. Following 4-h incubation, the medium was replaced with 500 μl fresh cultured medium. Twenty-four hours after plating, the medium was removed and the hepatocytes were overlaid with BD matrigel (0.25 mg/ml) in feeding medium (DMEM containing […] dexamethasone and 1% ITS) and cultured for another 24 h at 37 °C in a humidified atmosphere containing 5% CO2 for following experiments.
(§2) ROS generation was simultaneously measured using DCFH-DA as a fluorescent probe.

HepG2 cells [2] = assay: Hepatotoxicity of atorvastatin in HepG2 cells (MTT); conditions: 10 μM, 24 h
Method: (§3) The cells were cultured in DMEM containing 10% FBS (fetal bovine serum), non-essential amino acids, antibiotics (100 IU/ml penicillin and 100 μg/ml streptomycin), 2 mM L-glutamine, and 3.7 g/L NaHCO3 in a humidified incubator of 5% CO2 and 95% air atmosphere at 37 °C.

[3] = test system: normal rats and phenobarbital pre-treated rats; assay: Atorvastatin-induced hepatotoxicity in normal rats and rats pre-treated with phenobarbital; conditions: phenobarbital i.p. 80 mg/kg with atorvastatin 10, 20, 40 mg/kg for 10 days
Method: For normal rats, they were randomly divided into vehicle (CON) rats, low-dose treatment (AL) rats, middle-dose treatment (AM) rats and high-dose treatment (AH) rats (n = 5 for each group). CON rats orally received daily dose of vehicle. […] The serum biochemical parameters, liver weight and ROS levels were measured as described above.

hepatic Cyp3a = assay: Activity and expression of hepatic Cyp3a in phenobarbital-treated rats; conditions: PB rats, phenobarbital i.p. 80 mg/kg
Method: as §1
Repaglinide (20 μM) and midazolam (10 μM) were used as probe substrates to identify the activities of SLCO1B1 and Cyp3a, respectively.
Total rat liver extract was prepared in RIPA lysis buffer containing 1 mM PMSF to measure protein levels of Cyp3a and SLCO1B1. Protein concentrations were measured by the BCA protein assay kit. 50 μg proteins were separated on a SDS-polyacrylamide gel electrophoresis and transferred onto polyvinylidene fluoride membranes (Millipore Corporation, Billerica, MA, USA).

[4] = phenobarbital i.p. 80 mg/kg
Method: Blood samples were collected under light ether anesthesia via the oculi chorioideae vein at 5, 10, 20, 30, 45, 60, 120, 240, 360, and 720 min after first dose and last dose. After 3 or 4 samplings, the appropriate amount of normal saline was administered to the rats via the tail vein to compensate for blood loss. The blood collected was mixed properly with the anticoagulant and centrifuged at 4000 rpm for 10 min. The plasma was separated and stored at −80 °C until drug analysis.
The pharmacokinetic parameters were calculated using noncompartmental analysis on Phenix WinNonlin 6.1 (Pharsight, St. Louis, MO). All values were expressed as mean ± S.D. Results were analyzed using one-way analysis of variance (ANOVA) followed by Tukey’s post hoc test. Differences among groups were determined by nonparametric test when necessary. Statistical significance was assumed at P < 0.05.

hepatic SLCO1B1 = assay: Activity and expression of hepatic SLCO1B1 in phenobarbital-treated rats; format: in vivo, rat; conditions: PB rats, phenobarbital i.p. 80 mg/kg
primary rat hepatocytes [5] = assay: ROS generation in primary rat hepatocytes (DCFH-DA probe); format: cell-based; conditions: primary hepatocytes of DM rats, atorvastatin 10 μM; GSH 0.5 and 2 mM, N-Acetylcysteine 0.5 and 2 mM, gemfibrozil 10 and 50 μM, ketoconazole 2 μM
Method: as §1, §2

HepG2 cells [6] = assay: Atorvastatin metabolism in HepG2 cells (formation of ortho-hydroxy atorvastatin); conditions: HepG2, ketoconazole 2 and 10 μM; atorvastatin 30 μM, 30 min
Method: as §3

[7] = DM-AL: diabetic rats, 10 mg/kg, 10 days
[8] = DM-AM: diabetic rats, 20 mg/kg, 10 days
[9] = diabetic rats, 10 and 20 mg/kg, 10 days
[10] = serum, DM-AL: diabetic rats, 10 mg/kg, 10 days
[11] = serum, DM-AM: 20 mg/kg, 10 days
[12] = serum, DM-AM: diabetic rats, 20 mg/kg, 10 days

Method for diabetic rats: Briefly, experimental rats were assigned randomly to three groups: control (CON) group (n = 5), high-fat diet (HFD) group (n = 5) and diabetic (DM) group (n = 20). The CON rats were fed on normal chow while both HFD rats and DM rats were fed on high-fat diet (TROPHIC Animal Feed High-tech Co. Ltd, Nantong, China). After six-week of dietary manipulation, DM rats intraperitoneally (i.p.) received a single dose of STZ (35 mg/kg).
The diabetic rats were randomly divided into four groups (n = 5 for each group). The first group served as control group (DM).
Following last dose, rats, fasted overnight, were anesthetized with diethyl ether and blood samples were collected for measurement of blood chemistry. Then, the animals were sacrificed; the liver samples were harvested for standard histology, hepatic biochemical measurement and Western blot.

## CC(C)c1c(C(=O)Nc2ccccc2)c(-c2ccccc2)c(-c2ccc(F)cc2)n1CC[C@@H](O)C[C@@H](O)CC(=O)O [atorvastatin, Atorvastatin calcium]
Primary rat hepatocytes [1]; phenobarbital pre-treated rats, 96 h
  cytotoxicity in primary hepatocytes of PB rats: severe cytotoxicity
Diabetic rats; DM-AL: diabetic rats, 10 mg/kg atorvastatin orally once daily for 10 days
  Body weight: 269.3 ± 5.3 g
Diabetic rats; [7]
  FBG: 18.38 ± 1.75 mM
  FINS: 32.65 ± 2.15 mIU/L
  HOMA-IR: 27.56 ± 2.01
  Liver weight (% of body weight): 6.94 ± 0.95 % of body weight
  Spleen weight (% of body weight): 0.264 ± 0.027 % of body weight
Diabetic rats; DM-AM: 20 mg/kg, 10 days
  liver weight (% of body weight) compared with DM rats: almost doubled
Diabetic rats; DM-AM: diabetic rats, 20 mg/kg atorvastatin orally once daily for 10 days
  Body weight: 250.8 ± 22.4 g
Diabetic rats; [8]
  FBG: 18.34 ± 1.60 mM
  FINS: 32.51 ± 4.45 mIU/L
  HOMA-IR: 26.92 ± 2.52
  Liver weight (% of body weight): 10.60 ± 2.25 % of body weight
  Spleen weight (% of body weight): 0.392 ± 0.033 % of body weight
Diabetic rats; [9]
  MDA levels in liver: increased
  SOD, CAT, GSH-pX and SDH activities in liver: dose-dependently lowered
Diabetic rats; liver, DM-AL (10 mg/kg) and DM-AM (20 mg/kg) rats
  histopathological damage scores: Higher
Diabetic rats; [10]
  TC: 4.02 ± 0.71 mM
  TG: 5.40 ± 0.50 mM
Diabetic rats; [11]
  AKP level compared with DM rats: approximately doubled
  ALT level compared with DM rats: approximately doubled
  AST level compared with DM rats: approximately doubled
  DBIL level compared with DM rats: almost tripled
  TBIL level compared with DM rats: almost tripled
  level of Alb: significant decrease
Diabetic rats; [12]
  TC: 3.42 ± 0.52 mM
  TG: 3.75 ± 0.70 mM
HepG2 cells [2]
  cell viability: little affected

## CCC1(c2ccccc2)C(=O)NC(=O)NC1=O [phenobarbital, Phenobarbital]
[3]
  effect of co-administration on atorvastatin hepatotoxicity: markedly potentiated
Hepatic Cyp3a
  activities and expressions of hepatic Cyp3a: significantly increased
[4]
  effect on plasma exposure of atorvastatin in rats: decreased
Hepatic SLCO1B1
  activities and expressions of hepatic SLCO1B1: significantly increased

## Cc1ccc(C)c(OCCCC(C)(C)C(=O)O)c1 [gemfibrozil]
Primary rat hepatocytes [5]
  effect on atorvastatin-induced production of ROS: concentration-dependently reversed
Primary rat hepatocytes [1]
  effect on atorvastatin-induced cytotoxicity: concentration-dependently reversed

## CC(=O)N1CCN(c2ccc(OCC3COC(Cn4ccnc4)(c4ccc(Cl)cc4Cl)O3)cc2)CC1 (stereo not drawn) [ketoconazole, Ketoconazole]
HepG2 cells [6]
  effect of co-incubation on atorvastatin metabolism: concentration-dependently inhibited

## N[C@@H](CCC(=O)N[C@@H](CS)C(=O)NCC(=O)O)C(=O)O [GSH, Glutathione]
Primary rat hepatocytes [5]
  effect on atorvastatin-induced production of ROS: concentration-dependently reversed
Primary rat hepatocytes [1]
  effect on atorvastatin-induced cytotoxicity: concentration-dependently reversed

## CC(=O)N[C@@H](CS)C(=O)O [N-Acetylcysteine]
Primary rat hepatocytes [5]
  effect on atorvastatin-induced production of ROS: concentration-dependently reversed
Primary rat hepatocytes [1]
  effect on atorvastatin-induced cytotoxicity: concentration-dependently reversed
